“And” between values parts separate entries of the source, which are not always exact repeats. Identical values can stand only once. No end group written: not given here.
Experiments:
[1] = test system: pancreas of the anesthetized cat; test: secretin bioassay: stimulation of secretion of alkali in the pancreatic juice in the anesthetized cat; assay type: in vivo
Experimental: The biological activity was measured by the ability to stimulate the secretion of alkali in the pancreatic juice in the anesthetized cat (Mutt, v. and Soderberg, U. On the assay of secretin. Ark.Kem. 15, 63-68, 1959). The sample was compared to a secretin standard with an established activity of 3500 units per mg. […] Proteolytic fragmentation

[2] = test system: pancreas of the anesthetized cat; conditions: standard used for comparison; cited from earlier work

Substance: secretin (HSDGTFTSELSRLRDSARLQRLLQGLV-NH2; UniProt P63298 33-59, looked up) [porcine secretin, intestinal hormone peptide composed of 27 amino acid residues, C-terminal valine amidated]
- ALKALI SECRETED ([1]; Cat. 1, dose 47 pmole): 130 μequiv. and 116 μequiv.
- ALKALI SECRETED per dose ([1]; Cat. 1, dose 47 pmole): 2.7 μequiv.pmole and 2.5 μequiv.pmole
- ALKALI SECRETED ([1]; Cat. 1, dose 94 pmole): 182 μequiv. and 170 μequiv.
- ALKALI SECRETED per dose ([1]; Cat. 1, dose 94 pmole): 1.9 μequiv.pmole and 1.8 μequiv.pmole
- ALKALI SECRETED ([1]; Cat. 2, dose 47 pmole): 110 μequiv.
- ALKALI SECRETED per dose ([1]; Cat. 2, dose 47 pmole): 2.3 μequiv.pmole
- ALKALI SECRETED ([1]; Cat. 2, dose 94 pmole): 150 μequiv.
- ALKALI SECRETED per dose ([1]; Cat. 2, dose 94 pmole): 1.6 μequiv.pmole
- established activity of secretin standard [2]: 3500 units per mg

Source: patent US4840785A, “Mammal intestinal hormone precursor and its use” (priority 1985, dated 1989)
